Marks after values point to notes of the source that are not given here.
Columns and labels:
[1] = system: downstream effectors of PI3K; assay: Preclinical xenograft model studies: phosphorylation of downstream effectors of PI3K; type: in vivo; details: preclinical xenograft models, well-tolerated doses
[2] = system: xenograft tumor; assay: Preclinical xenograft model studies: tumor growth; type: in vivo; details: preclinical xenograft models, well-tolerated doses
[3] = system: downstream targets of PI3K, including pAKT and pEBP1; assay: Phosphorylation of downstream targets of PI3K in vitro and in vivo
[4] = Phase 1 trial, lymphoma/CLL expansion cohort: safety and tolerability; type: in vivo, human
[5] = system: relapsed/refractory lymphoma and CLL; assay: Phase 1 trial, lymphoma/CLL expansion cohort: best response; type: in vivo, human
Procedure: As part of a phase 1 single agent study in solid tumors, we administered Compound A to a dedicated expansion cohort of patients with relapsed/refractory lymphoma and CLL. The drug was administered orally daily, with continuous dosing in monthly cycles. A total of 15 patients were enrolled at three centers. An initial cohort of 3 patients was enrolled, followed by a safety review, with subsequent enrollment of the remaining 12 subjects. The median age of the patients was 66 years (range 28-81), 40% were male and 60% female.
This was a Phase 1, open-label, non-randomized trial of Compound A given orally as a single agent in subjects with lymphoma.
The key eligibility include the following: • Histologically confirmed diagnosis of relapsed or refractory lymphoma • Measureable disease • Adequate bone marrow function defined as: • ANC≥1000/mm^3 (CLL with ALC≥100,000/mm^3 required to have ANC≥500/mm^3) • Platelets≥30,000/mm^3 • Hemoglobin≥8 g/dL • Archival or fresh tumor tissue • No prior therapy with a selective PI3K inhibitor • Written informed consent. Results

[6] = Phase 1 trial, lymphoma/CLL expansion cohort: plasma pharmacokinetics; type: in vivo, human; details: 600 mg oral daily, cycle 1, eight patients
Description: The secondary objectives were to determine (a) the plasma pharmacokinetics of Compound A; and (b) the pharmacodynamic effects of Compound A on tumor tissue.
There was inter-patient variability, and the geometric mean was 7.6 fold.

[7] = system: PI3K pathway; assay: Phase 1 study in patients with solid tumors: pharmacodynamics in surrogate and tumor tissue; type: in vivo, human
Procedure: (§1) The maximum tolerated dose (MTD) was defined as 600 mg (capsule) once daily (QD) on either a 21/7 (administered continuously for 21 days followed by 7 days rest) or a continuous daily dosing schedule. […] A dose-escalation study of a tablet formulation is ongoing. Ten additional patients have been enrolled in the expansion cohort to better define the activity of Compound A, and further studies are warranted.

[8] = Phase 1 study in solid tumors: maximum tolerated dose and dose-limiting toxicities; type: in vivo
Procedure: as §1

[9] = molecular target: class I PI3K isoform β (Homo sapiens, UniProt P42338); details: read-out: IC50 PI3K β
Chain of class I PI3K isoform β (P42338 whole entry, canonical isoform): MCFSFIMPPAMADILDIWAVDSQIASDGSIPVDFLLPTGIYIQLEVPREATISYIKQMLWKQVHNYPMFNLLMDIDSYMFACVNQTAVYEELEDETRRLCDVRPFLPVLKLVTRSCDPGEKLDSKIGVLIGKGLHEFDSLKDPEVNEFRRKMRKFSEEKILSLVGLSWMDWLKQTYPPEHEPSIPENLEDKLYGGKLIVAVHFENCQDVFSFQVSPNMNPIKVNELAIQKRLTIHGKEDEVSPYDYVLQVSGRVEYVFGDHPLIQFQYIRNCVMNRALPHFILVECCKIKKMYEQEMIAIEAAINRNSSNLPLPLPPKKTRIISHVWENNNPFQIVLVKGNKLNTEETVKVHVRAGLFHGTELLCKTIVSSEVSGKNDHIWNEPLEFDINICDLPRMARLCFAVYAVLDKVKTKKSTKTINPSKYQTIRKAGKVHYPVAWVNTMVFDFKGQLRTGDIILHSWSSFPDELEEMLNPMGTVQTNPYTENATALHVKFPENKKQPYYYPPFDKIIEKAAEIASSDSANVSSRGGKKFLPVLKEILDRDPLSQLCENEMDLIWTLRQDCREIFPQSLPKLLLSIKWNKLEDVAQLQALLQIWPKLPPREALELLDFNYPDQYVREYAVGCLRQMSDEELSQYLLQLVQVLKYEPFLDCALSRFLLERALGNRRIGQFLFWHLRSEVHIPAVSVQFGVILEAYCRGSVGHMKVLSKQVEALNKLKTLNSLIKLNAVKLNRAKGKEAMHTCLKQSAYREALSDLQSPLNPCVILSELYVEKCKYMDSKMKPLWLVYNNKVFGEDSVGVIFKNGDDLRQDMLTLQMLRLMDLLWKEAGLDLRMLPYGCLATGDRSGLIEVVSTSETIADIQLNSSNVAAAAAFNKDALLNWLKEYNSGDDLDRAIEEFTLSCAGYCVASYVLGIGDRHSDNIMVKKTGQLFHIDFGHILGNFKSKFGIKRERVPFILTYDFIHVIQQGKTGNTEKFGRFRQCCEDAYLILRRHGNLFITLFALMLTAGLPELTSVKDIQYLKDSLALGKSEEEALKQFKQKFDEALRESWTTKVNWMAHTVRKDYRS
Chain of class I PI3K isoform β (P27986 whole entry partner, canonical isoform): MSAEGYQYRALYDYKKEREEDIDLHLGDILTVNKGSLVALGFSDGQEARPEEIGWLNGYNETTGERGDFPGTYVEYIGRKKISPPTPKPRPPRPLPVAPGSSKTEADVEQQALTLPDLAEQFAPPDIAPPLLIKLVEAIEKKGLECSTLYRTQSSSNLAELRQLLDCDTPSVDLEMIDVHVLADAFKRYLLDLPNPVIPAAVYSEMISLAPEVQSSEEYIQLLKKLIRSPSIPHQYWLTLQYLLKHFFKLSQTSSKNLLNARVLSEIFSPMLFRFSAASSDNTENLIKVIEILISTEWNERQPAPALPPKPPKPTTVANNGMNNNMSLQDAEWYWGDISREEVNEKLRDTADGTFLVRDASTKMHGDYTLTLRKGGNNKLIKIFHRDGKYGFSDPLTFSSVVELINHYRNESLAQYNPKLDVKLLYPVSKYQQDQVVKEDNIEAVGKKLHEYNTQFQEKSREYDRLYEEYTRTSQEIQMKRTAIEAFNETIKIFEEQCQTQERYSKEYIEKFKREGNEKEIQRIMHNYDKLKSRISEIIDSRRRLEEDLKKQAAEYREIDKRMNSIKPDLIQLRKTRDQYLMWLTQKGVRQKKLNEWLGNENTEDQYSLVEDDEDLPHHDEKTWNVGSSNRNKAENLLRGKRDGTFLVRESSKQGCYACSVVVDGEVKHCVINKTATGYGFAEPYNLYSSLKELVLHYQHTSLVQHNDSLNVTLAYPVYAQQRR

[10] = molecular target: class I PI3K isoform γ (Homo sapiens, UniProt P48736); details: read-out: IC50 PI3K γ
Chain of class I PI3K isoform γ (P48736 whole entry, canonical isoform): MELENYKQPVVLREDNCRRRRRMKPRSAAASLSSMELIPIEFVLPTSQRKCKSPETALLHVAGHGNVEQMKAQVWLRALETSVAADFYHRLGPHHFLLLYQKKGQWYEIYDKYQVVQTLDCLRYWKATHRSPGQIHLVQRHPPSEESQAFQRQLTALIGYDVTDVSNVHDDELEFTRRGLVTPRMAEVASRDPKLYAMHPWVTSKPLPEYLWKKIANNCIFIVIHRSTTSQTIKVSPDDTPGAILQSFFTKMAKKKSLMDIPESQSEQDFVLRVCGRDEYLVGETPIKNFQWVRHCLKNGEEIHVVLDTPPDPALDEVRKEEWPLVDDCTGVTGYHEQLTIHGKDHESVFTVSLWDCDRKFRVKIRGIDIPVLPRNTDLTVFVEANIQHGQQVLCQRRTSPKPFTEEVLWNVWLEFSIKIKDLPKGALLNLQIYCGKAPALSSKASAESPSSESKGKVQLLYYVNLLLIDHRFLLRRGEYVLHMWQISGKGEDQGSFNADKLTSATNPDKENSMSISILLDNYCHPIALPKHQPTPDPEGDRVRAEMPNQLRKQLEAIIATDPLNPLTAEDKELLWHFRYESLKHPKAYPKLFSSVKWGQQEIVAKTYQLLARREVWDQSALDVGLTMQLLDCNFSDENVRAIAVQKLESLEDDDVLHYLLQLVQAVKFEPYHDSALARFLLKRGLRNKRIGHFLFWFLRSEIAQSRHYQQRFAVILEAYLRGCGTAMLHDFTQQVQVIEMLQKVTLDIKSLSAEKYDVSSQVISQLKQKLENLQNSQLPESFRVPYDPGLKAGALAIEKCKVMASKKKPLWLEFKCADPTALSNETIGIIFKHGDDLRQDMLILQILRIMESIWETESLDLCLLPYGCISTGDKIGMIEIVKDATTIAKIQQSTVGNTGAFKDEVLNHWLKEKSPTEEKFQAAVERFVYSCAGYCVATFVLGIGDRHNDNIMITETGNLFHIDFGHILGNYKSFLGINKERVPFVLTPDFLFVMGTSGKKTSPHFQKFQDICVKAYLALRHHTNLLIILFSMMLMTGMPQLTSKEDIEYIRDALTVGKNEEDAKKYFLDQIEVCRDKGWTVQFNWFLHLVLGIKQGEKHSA

[11] = molecular target: class I PI3K isoform δ (Homo sapiens, UniProt O00329); details: read-out: IC50 PI3K δ
Chain of class I PI3K isoform δ (O00329 whole entry, canonical isoform): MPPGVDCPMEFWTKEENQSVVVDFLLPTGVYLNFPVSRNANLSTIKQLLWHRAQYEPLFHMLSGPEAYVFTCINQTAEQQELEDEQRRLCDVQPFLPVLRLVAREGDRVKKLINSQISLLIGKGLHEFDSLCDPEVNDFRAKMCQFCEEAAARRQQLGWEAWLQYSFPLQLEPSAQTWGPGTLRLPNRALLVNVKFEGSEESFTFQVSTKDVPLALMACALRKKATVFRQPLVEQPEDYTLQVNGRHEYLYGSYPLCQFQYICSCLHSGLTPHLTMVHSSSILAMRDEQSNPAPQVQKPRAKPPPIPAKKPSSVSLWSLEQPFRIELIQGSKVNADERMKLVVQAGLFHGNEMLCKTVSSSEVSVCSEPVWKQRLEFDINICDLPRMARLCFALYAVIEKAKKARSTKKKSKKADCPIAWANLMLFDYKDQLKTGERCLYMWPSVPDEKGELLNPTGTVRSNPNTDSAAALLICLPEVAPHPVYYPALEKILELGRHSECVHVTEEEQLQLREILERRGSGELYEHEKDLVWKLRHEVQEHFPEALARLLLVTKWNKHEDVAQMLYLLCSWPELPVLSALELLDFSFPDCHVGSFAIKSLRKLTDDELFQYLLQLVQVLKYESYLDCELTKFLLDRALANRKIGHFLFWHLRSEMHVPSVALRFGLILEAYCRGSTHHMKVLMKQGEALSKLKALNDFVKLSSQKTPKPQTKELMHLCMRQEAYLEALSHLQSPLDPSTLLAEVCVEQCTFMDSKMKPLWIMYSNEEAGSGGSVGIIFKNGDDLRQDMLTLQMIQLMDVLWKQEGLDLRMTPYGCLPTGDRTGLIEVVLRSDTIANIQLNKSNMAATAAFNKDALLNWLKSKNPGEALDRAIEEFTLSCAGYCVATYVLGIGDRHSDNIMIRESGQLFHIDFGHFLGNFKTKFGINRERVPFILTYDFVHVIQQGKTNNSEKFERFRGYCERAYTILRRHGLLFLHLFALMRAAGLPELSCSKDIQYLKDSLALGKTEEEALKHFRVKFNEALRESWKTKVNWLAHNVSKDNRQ
Chain of class I PI3K isoform δ (P27986 whole entry partner, canonical isoform): as the sequence (P27986 whole entry partner, canonical isoform) above

[12] = molecular target: mTOR (Homo sapiens, UniProt P42345); details: read-out: IC50 mTOR
[13] = nineteen subjects, 600 mg capsule daily
[14] = nineteen subjects, unrelated to study drug
[15] = Hodgkin Lymphoma, n = 2 evaluated

COc1ccc(Cl)c(Nc2nc3ccccc3nc2NS(=O)(=O)c2cccc(NC(=O)C(C)(C)N)c2)c1 [Compound A, N-(3-{[(3-{[2-chloro-5-(methoxy)phenyl]amino}quinoxalin-2-yl)amino]sulfonyl}phenyl)-2-methylalaninamide]
phosphorylation of downstream effectors of PI3K [1]: inhibited phosphorylation of downstream effectors of PI3K | tumor growth [2]: inhibited tumor growth | phosphorylation of downstream targets of PI3K, including pAKT and pEBP1 [3]: inhibits phosphorylation | grade 3-4 thrombocytopenia ([4]; 1/15 patients, oral daily continuous dosing): 6.7% | hyperglycemia, grade 1-2 event ([4]; 1 of 15 patients): 6.7% | hyperglycemia, grade 3-4 event ([4]; 1 of 15 patients): 6.7% | grade 3-4 neutropenia ([4]; 4/15 patients, oral daily continuous dosing): 26.7% | tolerability in patients with lymphoma and CLL ([4]; in vivo): well-tolerated | Patients requiring dose modification due to toxicity: Hyperglycemia ([4]; nineteen subjects): 1 (5) n (%) | Patients requiring dose modification due to toxicity: Neutropenia ([4]; nineteen subjects): 2 (11) n (%) | Patients requiring dose modification due to toxicity: Rash ([4]; nineteen subjects): 1 (5) n (%) | Abdominal Pain, All Adverse Events, All Grades [4, 13]: 4 (21) n (%) | Abdominal Pain, All Adverse Events, Grade ≥3 [4, 13]: 1 (5) n (%) | Abdominal Pain, Related Adverse Events, All Grades [4, 13]: 2 (11) n (%) | Abdominal Pain, Related Adverse Events, Grade ≥3 [4, 13]: 0 n (%) | Anemia, All Adverse Events, All Grades [4, 13]: 4 (21) n (%) | Anemia, All Adverse Events, Grade ≥3 [4, 13]: 3 (16) n (%) | Anemia, Related Adverse Events, All Grades [4, 13]: 1 (5) n (%) | Anemia, Related Adverse Events, Grade ≥3 [4, 13]: 0 n (%) | Cough, All Adverse Events, All Grades [4, 13]: 6 (32) n (%) | Cough, All Adverse Events, Grade ≥3 [4, 13]: 1 (5) n (%) | Cough, Related Adverse Events, All Grades [4, 13]: 0 n (%) | Cough, Related Adverse Events, Grade ≥3 [4, 13]: 0 n (%) | Diarrhea, All Adverse Events, All Grades [4, 13]: 12 (63) n (%) | Diarrhea, All Adverse Events, Grade ≥3 [4, 13]: 1 (5) n (%) | Diarrhea, Related Adverse Events, All Grades [4, 13]: 7 (37) n (%) | Diarrhea, Related Adverse Events, Grade ≥3 [4, 13]: 1 (5) n (%) | Dyspnea, All Adverse Events, All Grades [4, 13]: 4 (21) n (%) | Dyspnea, All Adverse Events, Grade ≥3 [4, 13]: 1 (5) n (%) | Dyspnea, Related Adverse Events, All Grades [4, 13]: 0 n (%) | Dyspnea, Related Adverse Events, Grade ≥3 [4, 13]: 0 n (%) | Fatigue, All Adverse Events, All Grades [4, 13]: 5 (26) n (%) | Fatigue, All Adverse Events, Grade ≥3 [4, 13]: 0 n (%) | Fatigue, Related Adverse Events, All Grades [4, 13]: 0 n (%) | Fatigue, Related Adverse Events, Grade ≥3 [4, 13]: 0 n (%) | Hyperglycemia, All Adverse Events, All Grades [4, 13]: 4 (21) n (%) | Hyperglycemia, All Adverse Events, Grade ≥3 [4, 13]: 1 (5) n (%) | Hyperglycemia, Related Adverse Events, All Grades [4, 13]: 4 (21) n (%) | Hyperglycemia, Related Adverse Events, Grade ≥3 [4, 13]: 1 (5) n (%) | Neutropenia, All Adverse Events, All Grades [4, 13]: 5 (26) n (%) | Neutropenia, All Adverse Events, Grade ≥3 [4, 13]: 5 (26) n (%) | Neutropenia, Related Adverse Events, All Grades [4, 13]: 4 (21) n (%) | Neutropenia, Related Adverse Events, Grade ≥3 [4, 13]: 4 (21) n (%) | Pruritus, All Adverse Events, All Grades [4, 13]: 4 (21) n (%) | Pruritus, All Adverse Events, Grade ≥3 [4, 13]: 1 (5) n (%) | Pruritus, Related Adverse Events, All Grades [4, 13]: 2 (11) n (%) | Pruritus, Related Adverse Events, Grade ≥3 [4, 13]: 0 n (%) | Pyrexia, All Adverse Events, All Grades [4, 13]: 5 (26) n (%) | Pyrexia, All Adverse Events, Grade ≥3 [4, 13]: 1 (5) n (%) | Pyrexia, Related Adverse Events, All Grades [4, 13]: 1 (5) n (%) | Pyrexia, Related Adverse Events, Grade ≥3 [4, 13]: 0 n (%) | Rash, All Adverse Events, All Grades [4, 13]: 4 (21) n (%) | Rash, All Adverse Events, Grade ≥3 [4, 13]: 1 (5) n (%) | Rash, Related Adverse Events, All Grades [4, 13]: 3 (16) n (%) | Rash, Related Adverse Events, Grade ≥3 [4, 13]: 1 (5) n (%) | Patients requiring dose modification due to toxicity ([4]; nineteen subjects, total): 7 (37) n (%) | Patients requiring dose modification due to toxicity: More than 1 event in the same patient ([4]; nineteen subjects, diarrhea, fever/pneumonia, fever/pneumonia/sepsis/ileus/fluid overload): 1 (5) n (%) | Patients requiring dose modification due to toxicity: Fever/hypotension [4, 14]: 1 (5) n (%) | Patients requiring dose modification due to toxicity: Respiratory infection [4, 14]: 1 (5) n (%) | best response Stable Disease, number of patients ([5]; CLL/SLL, n = 5 evaluated, 600 mg capsule once daily, after cycle 2): 5^b | best response Stable Disease, number of patients ([5]; Follicular Lymphoma, n = 2 evaluated, 600 mg capsule once daily): 2^ | best response Progressive Disease, number of patients [5, 15]: 1 | best response Stable Disease, number of patients [5, 15]: 1^e | best response Stable Disease, number of patients ([5]; Transformed Lymphoma, n = 1 evaluated): 1^d | best response Complete Response, number of patients ([5]; Waldenstrom's Macroglobulinemia, n = 1 evaluated, complete response at cycle 14): 1^c | activity in patients ([5]; in vivo): active in CLL and low-grade lymphomas | geometric mean accumulation (AUC) on day 28 [6]: 7.6 fold | mean (CV %) accumulation (AUC) on day 28 ([6]; CV 88.1%): approximately 11.2 fold | effect as monotherapy ([7]; human, in vivo): primarily anti-proliferative, not pro-apoptotic | PI3K pathway activation in surrogate tissue (PBMC, hair follicle, skin) and tumor tissue ([7]; once daily, patients with solid tumors): inhibited PI3K pathway activation | PI3K and ERK pathway inhibition ([7]; well-tolerated doses): robust PI3K and ERK pathway inhibition | maximum tolerated dose (MTD) ([8]; capsule, once daily (QD), 21/7 or continuous daily dosing schedule): 600 mg | dose-limiting toxicities ([8]; human, in vivo): Grade 3 rash and Grade 3 hypersensitivity | IC50 [9]: 383 nM | IC50 [10]: 36 nM | IC50 [11]: 23 nM | IC50 [12]: > 15 µM
